The values below come from PubChem BioAssay AID179 (DTP/NCI, 2004).

This assay has as its system CEM cells HIV-1 protection, formazan growth assay. Nature of the assay: NCI AIDS Antiviral Assay. The note with it: for IC50: measured here: growth of uninfected CEM cells. In short, it runs like this: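 Human CEM cells, uninfected and HIV-1-infected, received five drug concentrations, and growth was read by soluble formazan assay. Compounds giving at least 50% protection were retested; reproducible 100% protection defined confirmed active.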

Several values for one entry are separate records, joined by “and”; a condition that tells them apart may be missing. Equal entries are not always repeated. Activity calls are given as the source filed them.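 Rule for the calls: active = compounds giving half or more protection of infected cells from virus-caused growth loss, again on retest; inactive = the rest.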 Some results are limits rather than exact numbers.

Take `CCCCCC=C(c1cc(Cl)c(OC)c(C(=O)OCC)c1)c1cc(Cl)c(OC)c(C(=O)OCC)c1`: the EC50 is greater than 10 µM and the IC50 is greater than 10 µM.
For `CC(C)(C)c1cc(C2c3cc4c(cc3OC(O)(CO)C2C(=O)O)OCO4)cc(C(C)(C)C)c1O` (centres undefined) (tested in a mixture with another compound), the outcome was inactive.
For `C=C1C(=O)O[C@H](c2ccoc2)C[C@@H]1[C@@]1(C)CCCC2(C)C(=O)OCC21` (some centres undefined), the EC50 is greater than 145 µM and the IC50 came out at 95.5 µM.
In the same order, the values of `COc1ccc(/C(=N\NC(=S)NN)C(c2ccc(OC)cc2)C2C(=O)Oc3ccccc32)cc1` (centres undefined) are greater than 75.9 µM and greater than 75.9 µM.
In the case of `Clc1cc2ncn(C3CCCO3)c2cc1Cl` (centres undefined), the EC50 is greater than 200 µM and the IC50 was found to be 61.7 µM.
On to `N[C@@H]1c2c(Br)sc(N3CCOCC3)c2C(=O)[C@@H]1O`, for which the EC50 is greater than 200 µM and the IC50 came out at 105 µM.
Consider `N#CC1CC2(C1)OCCS2` (centres undefined), for which the result was inactive.
For the compound `Cc1nc2ccc(Cl)cc2c(-n2ccnc2)c1CCn1ccnc1`, the EC50 is greater than 200 µM and the IC50 was found to be 89.1 µM.
Take `O=C(O)Cc1ccc2c(c1O)C(=O)c1c(ccc(CC(=O)O)c1O)C2=O`: the EC50 is greater than 191 µM and the half-maximal inhibitory concentration (IC50) came to 126 µM.
The corresponding values for `CCCCCCCCCCCC(=O)OCC1OC(n2cc(F)c(=O)[nH]c2=O)C(NC(=O)OCc2ccccc2)C(O)C1O` (centres undefined) are greater than 30.9 µM and greater than 30.9 µM.
On to `c1cc[c]([Sn]([S]c2ccccn2)([c]2ccccc2)[c]2ccccc2)cc1`, for which the EC50 was greater than 2 µM and the 50% inhibitory concentration (IC50) came out at 0.339 µM.
The corresponding values for `N#Cc1c(C#N)c(-c2ccccc2)n(Cc2ccccc2)c1N` are greater than 200 µM and greater than 200 µM.
For `O=C(c1ccc(O)c([N+](=O)[O-])c1)c1ccc(O)c([N+](=O)[O-])c1`, the EC50 is greater than 200 µM and the IC50 came to 45.7 µM.
In the same order, the values of `COC(=O)/C=C(\C(=O)OC)C1C(=O)Oc2c(C)c(=O)c3ccccc3n21` (centres undefined) are greater than 200 µM and 60.3 µM.
In the same order, the values of `COc1cc2oc(-c3ccc(O)cc3O)c(CC=C(C)C)c(=O)c2c(O)c1/C=C/C(C)C` are greater than 200 µM and 4.79 µM.
In the same order, the values of `COc1ccc2nc3cc(Cl)ccc3c(SCC(=O)Nc3ccccc3-c3ccccc3NC(=O)CSc3c4ccc(Cl)cc4nc4ccc(OC)cc34)c2c1` are greater than 8.91 µM and greater than 8.91 µM.
Regarding `OC1NC2Nc3ccccc3NC2NC1O` (centres undefined), the EC50 is greater than 200 µM and the IC50 is greater than 200 µM.
Consider `Cc1ccc(S(=O)(=O)n2cc(/C=C/C#N)c(-c3cn(S(=O)(=O)c4ccc(C)cc4)cc3-c3cn(S(=O)(=O)c4ccc(C)cc4)cc3/C=C/C#N)c2)cc1`, for which the EC50 is greater than 200 µM and the IC50 is greater than 200 µM.
Turning to `Cc1ccc2[nH]c3[nH]c(=S)[nH]c(=O)c3c2c1`, the EC50 is 22.4 µM and the IC50 was 162 µM.
For `O[Si](c1ccc(C(F)(F)F)cc1)(c1cccc(C(F)(F)F)c1)c1cccc(C(F)(F)F)c1`, the EC50 was greater than 200 µM and the IC50 is 10.5 µM.
In the same order, the values of `NC1=NN(O)C2=CC([N+](=O)[O-])C=CC2=N1` (centres undefined) are greater than 25.1 µM and 20.4 µM.
As to `CC(C)[Si](OC1=CCC[C@H]2NC(=O)[C@@H](Cc3ccc([N+](=O)[O-])cc3)[C@@]12C)(C(C)C)C(C)C`, the EC50 is greater than 200 µM and the IC50 is 20.4 µM.
In the same order, the values of `O=C(ON=C1c2ccccc2C(Br)C(Br)c2ccccc21)c1cc([N+](=O)[O-])cc([N+](=O)[O-])c1` (centres undefined) are greater than 200 µM and 0.851 µM.
Consider `Cc1cn(C2CC(O[Si](C)(C)C(C)(C)C)C(C/[N+]([O-])=N\Nc3ccc([N+](=O)[O-])cc3)O2)c(=O)[nH]c1=O` (centres undefined), for which the EC50 is greater than 200 µM and the IC50 came to 3.31 µM.
Take `N#CC1=C(N)Oc2cc(O)cc(O)c2C1c1ccccc1` (centres undefined): the EC50 is greater than 200 µM and the IC50 was greater than 100 µM.
On to `Nc1nnc2c(-c3ccccc3)[nH]nc2n1`, for which the outcome was inactive.
As for `CNn1c(-c2ccccc2)n[nH]c1=O`, the EC50 was 110 µM and the IC50 was found to be 151 µM.
The corresponding values for `COCCOCCOC(=O)C(CO)(CC(CO)(C(C)=O)C(=O)OCCOCCOC)C(C)=O` (centres undefined) are greater than 200 µM and greater than 200 µM.
On to `CC1CN=C(N(C)C(=O)Nc2ccc(Cl)cc2)S1` (centres undefined), for which the result was inactive.
Regarding `CCN(CC)CCC(=O)NC1c2ccccc2Oc2ccccc21`, the EC50 is greater than 398 µM and the half-maximal inhibitory concentration (IC50) was 219 µM.
Take `CCCCCCNC(=O)/C(=C/c1ccc(OC)cc1)NC(=O)c1ccccc1`: the EC50 was greater than 200 µM and the IC50 came to 102 µM.
With `Nc1nc(N)c(CCCCc2ccccc2)c(N)n1`, the outcome was inactive.
With `Cc1c([C@H](C)[C@@H]2NC[C@@H](C)C[C@H]2O)ccc2c1C[C@H]1[C@H]2CC=C2C[C@@H](O)CC[C@@]21C`, the EC50 was greater than 1.82 µM and the IC50 was greater than 1.82 µM.
`CC(=O)OCC1OC(n2c(-c3ccccc3)cc(-c3ccco3)c(C#N)c2=O)C(OC(C)=O)C(OC(C)=O)C1OC(C)=O` (centres undefined): the EC50 is greater than 17 µM; the IC50 was > 17 µM and 12.6 µM.
As for `CN(C)c1ccc(C(=O)CCCN2CCC(O)(c3ccc(Cl)cc3)CC2)cc1`, the EC50 was greater than 25.1 µM and the IC50 is greater than 25.1 µM.
For the compound `COC1=CC(=C(c2ccc(O)c(OC)c2)c2ccc(O)c(OC)c2)C=CC1=O`, the EC50 was greater than 200 µM and the IC50 came out at 3.55 µM.
The corresponding values for `O=C(Nc1ccc(C2=NCCN2)cc1)Nc1cccc(C(=O)Nc2ccc(C3=NCCN3)cc2)c1` are 12.9 µM and 74.1 µM.
On to `Cc1ccc(C(=O)C(c2nc3n(c2O)C(=N)N=N3)c2nc3n(c2O)C(=N)N=N3)cc1` (centres undefined), for which the EC50 was greater than 12.9 µM and the IC50 was greater than 12.9 µM.
As for `COC(=O)c1c(C)cccc1/C=C1\Cc2ccc(C)c(C)c2C1=O`, the EC50 is greater than 200 µM and the IC50 was greater than 200 µM.
For the compound `C[n+]1c2ccccc2c(NC(CCCN=C(N)N)C(=O)O)c2ccccc21` (centres undefined), the outcome was inactive.
Take `CC(C)N(C(=O)C12C3C4C5(C(=O)O)C(C1C35I)C42C(=O)O)C(C)C` (centres undefined): the EC50 is greater than 562 µM and the IC50 is greater than 562 µM.
Take `CC(=O)Nc1ccc(S(=O)c2ccc(NC(C)=O)cc2)cc1`: the EC50 was greater than 81.3 µM and the half-maximal inhibitory concentration (IC50) was greater than 81.3 µM.
Consider `O=C(CCn1[nH]c(=O)c(Cl)c(Cl)c1=O)NOCCCc1ccccc1`, for which the EC50 was greater than 646 µM and the IC50 is greater than 646 µM.
On to `CCOCc1cc(=O)c2cc3c(cc2o1)OC(C)(C)CC3`, for which the result was inactive.
For the compound `C/C(=C(/C)c1cc[n+](C)cc1)c1cc[n+](C)cc1`, the EC50 was greater than 11.2 µM and the concentration for half-maximal inhibition (IC50) is greater than 11.2 µM.
Turning to `COc1cc(OC)c2c(c1)OC(=O)C(C(C)=O)C2` (centres undefined), the EC50 was greater than 200 µM and the IC50 is greater than 200 µM.
Turning to `CCOC(=O)Nc1ccc2nc(Sc3ccc(C)cc3)sc2c1`, the EC50 is greater than 20.9 µM and the half-inhibitory concentration (IC50) came out at 1.23 µM.
For the compound `O=C(Cn1c(-c2ccccc2)cc2ccccc21)N1CCOCC1`, the EC50 is greater than 200 µM and the IC50 was greater than 200 µM.
With `CC1=N/C(=C\c2ccc(F)cc2)C(=O)O1`, the EC50 is greater than 25.1 µM and the IC50 is greater than 25.1 µM.
Consider `CC(Oc1ccc2cc(C(=O)c3ccccc3)c(=O)oc2c1)C(=O)O` (centres undefined), for which the outcome was inactive.
On to `O=C(Nc1cccc(Cl)c1)Nc1ccc[nH]c1=O`, for which the EC50 is greater than 490 µM and the IC50 amounted to 25.1 µM.
The corresponding values for `O=C(Nc1nc2ccc([N+](=O)[O-])cc2s1)C(=O)C(C1OC(=O)c2ccccc21)[N+](=O)[O-]` (centres undefined) are greater than 81.3 µM and 51.3 µM.
For `C1=NN2C(c3ccccc3)=NOC2C2C(c3ccccc3)=NOC12` (centres undefined), the EC50 was greater than 200 µM and the IC50 is greater than 200 µM.
In the case of `CCCCOc1cccc(/C=N/N=C(/N)NO)c1`, the outcome was inactive.
Still for that read-out and setting: the entry for `O=c1cc(CCl)nc2c3ncn(C4OC(CO)C(O)C4O)c3ncn12` (centres undefined) is “inactive”.
Regarding `COc1ccc(CN2COc3c(ccc4ccccc34)C2)cc1`, the EC50 was greater than 200 µM and the IC50 is 10.2 µM.
As to `COc1ccc(N2C=Nn3c(nc4sc(C)c(C)c4c3=O)C2)cc1`, the result was inactive.
As for `O=C(O)CCC(NC(=O)c1ccccc1C(=O)O)C(=O)O` (centres undefined), the EC50 is greater than 200 µM and the IC50 was greater than 200 µM.
`COc1cccc(C=O)c1[O-].COc1cccc(C=O)c1[O-].[Co+2]`: the EC50 was greater than 186 µM and the IC50 stood at 28.2 µM.
The corresponding values for `Cn1c(Nc2ccccc2)c(C=Nc2ccccc2)c(=O)n(C)c1=O` are greater than 100 µM and 53.7 µM.
In the same order, the values of `O=c1oc2ccccc2n1Cc1ccc(Cl)cc1` are greater than 200 µM and 79.4 µM.
On to `Oc1ccc(C2Oc3cc(OC4OCC(O)C(O)C4O)cc(O)c3CC2O)cc1O` (centres undefined), for which the EC50 was greater than 200 µM and the IC50 is greater than 200 µM.
As for `O=C1N[C@H]2[C@H](O)[C@H](O)[C@@H](O)[C@H](O)[C@@H]2c2cc3c(c(O)c21)OCO3`, the result was inactive.
Consider `CSCCCNC(=O)c1csc(-c2csc(CCNC(=O)CNC(=O)CNC(=O)CNC(=O)OC(C)(C)C)n2)n1`, for which the EC50 is greater than 407 µM and the IC50 is greater than 407 µM.
Consider `Cc1cccc(-c2nc(-c3cnccn3)n(Cc3ccccc3)n2)c1`, for which the EC50 is greater than 200 µM and the IC50 was greater than 200 µM.
With `Cc1csc2n(C)c(=O)c3ccccc3[n+]12`, the EC50 is 191 µM and the IC50 is greater than 200 µM.
`COc1c(NS(=O)(=O)c2ccccc2)cc2c3c(cccc13)/C(=C1\Cc3cccc4c(OC)c(NS(=O)(=O)c5ccccc5)cc1c34)C2`: the EC50 was greater than 200 µM and the IC50 came out at 132 µM.
In the case of `O[C@@H]1CCC[C@@H]2NC[C@@H](c3ccc4c(c3)OCO4)[C@H]12`, the EC50 was greater than 200 µM and the 50% inhibitory concentration (IC50) is greater than 200 µM.
In the case of `CC1=NOC(=O)C1N=Nc1ccc(Br)c(C)c1` (centres undefined), the result was inactive.
In the case of `CC(=O)C(CN1C(=O)c2ccccc2C1=O)C(C)=O`, the EC50 is greater than 38.9 µM and the IC50 was greater than 38.9 µM.
Regarding `Cc1ccc(/C=C2/N=C(N/N=C\c3ccccc3)NC2=O)cc1`, the EC50 is greater than 200 µM and the IC50 was 129 µM.

One may read the EC50 as the concentration needed to bring the measured effect to its halfway point. As usually defined, the IC50 is the midpoint of a concentration-inhibition curve.
